# Laboratory results as given in patent publication US20180087079A1, “METHODS OF USING CELL-CYCLE INHIBITORS TO MODULATE ONE OR MORE PROPERTIES OF A CELL CULTURE” (AMGEN INC., priority 2013, published 2018).
# pIC50: −log10 of the molar value.
# What was measured:
# [1] = tested on: transfected CHO cells expressing recombinant human monoclonal antibody (cell line 2); test: 24-deep well culture, cell line 2: VCD, viability, titer, qP; format: cell-based, Chinese hamster
# Method: (§1) Transfected CHO cells expressing a recombinant human monoclonal antibody (mAb) are cultured in 24-deep well plates with seeding density at 1×10^7/mL for five days. At certain time periods, samples of the cultures are taken and evaluated for viable cell density (VCD; expressed in 10^6 cells/mL); percent viability (as determined by trypan blue exclusion); titer of recombinant protein (expressed in grams of protein per liter of culture, or g/L, as determined by Protein A affinity HPLC); qP, or specific productivity (expressed in picograms of recombinant protein per cell per day, or pg/c/d), the presence or absence of high molecular weight substances (usually an indicator of protein aggregation; expressed as % of the total protein); and the relative percentage of Mannose 5, a major intermediate glyco-form that attaches to N297 of the mAb. N-linked glycosylation has an impact on the tertiary structure of the antibody and may affect Fc mediated antibody effector functions. The majority of the human Fc glycans are complex biantennary structures with galactose as the prevalent terminal sugar. Immature glyco-forms, such as high-mannose glycol-forms (Man5-9), are of concern due to potential higher plasma clearance rate (as compared to the clearance rate of complex glycan linked mAbs).
# (§2) Compounds are further evaluated essentially as described in Example 2 herein. Briefly, transfected CHO cells expressing recombinant human monoclonal antibody (mAb; two different cell lines expressing two different mAb, referred to as cell line 1 and cell line 2) are cultured in 24-deep well plates in the presence or absence of the compounds. At specified time points, samples of the cultures are taken and evaluated for viable cell density (VCD; expressed in 10^6 cells/mL); percent viability (as determined by any method known in the art); titer of recombinant protein (expressed in grams of protein per liter of culture, or g/L, as determined by Protein A affinity HPLC); qP, or specific productivity (expressed in picograms of recombinant protein per cell per day, or pg/c/d). Additional parameters measure include the presence or absence of high molecular weight substances (usually an indicator of protein aggregation; expressed as % of the total protein); and the relative percentage of Mannose 5. For comparison purposes, Compounds A and B, which had been previously tested, were tested again.
# CDK4/Cyclin D1 = biological target: T1, CDK4/Cyclin D1 (Homo sapiens, UniProt P11802); test: CDK4 filtration kinase assay; format: biochemical; conditions: CDK4/Cyclin D1, Rb fragment substrate, [33P]-ATP
# T1 construct: purchased Cell Signaling Technology
# T1 sequence (P11802 whole entry, species assumed, the tested form may be a part): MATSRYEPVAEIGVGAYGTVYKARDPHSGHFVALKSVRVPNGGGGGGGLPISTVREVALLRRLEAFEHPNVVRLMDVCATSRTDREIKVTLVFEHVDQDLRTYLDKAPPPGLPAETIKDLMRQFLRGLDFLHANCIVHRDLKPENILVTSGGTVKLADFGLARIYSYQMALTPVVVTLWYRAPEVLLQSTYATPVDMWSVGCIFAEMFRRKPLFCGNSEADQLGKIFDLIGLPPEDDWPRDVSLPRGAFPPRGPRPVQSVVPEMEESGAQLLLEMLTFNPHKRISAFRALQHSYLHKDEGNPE
# T1 sequence (P24385 whole entry partner, species assumed, the tested form may be a part): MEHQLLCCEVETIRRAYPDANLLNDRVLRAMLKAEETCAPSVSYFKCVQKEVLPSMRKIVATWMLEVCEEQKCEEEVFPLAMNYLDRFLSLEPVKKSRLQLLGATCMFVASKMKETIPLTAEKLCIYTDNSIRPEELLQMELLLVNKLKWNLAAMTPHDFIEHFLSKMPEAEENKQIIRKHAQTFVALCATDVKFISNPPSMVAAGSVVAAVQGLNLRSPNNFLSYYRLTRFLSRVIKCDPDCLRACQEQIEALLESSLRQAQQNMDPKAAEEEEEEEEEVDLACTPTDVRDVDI
# Method: The CDK4 inhibitory activity of the cell cycle inhibitors was determined with a filtration kinase assay. The compounds, kinase and substrate diluted in the kinase buffer (20 mM Tris, pH7.4, 50 mM NaCl, 1 mM DTT, 0.1% BSA) were sequentially added to a 96-well Multiscreen HTS filtration plate (Millipore). The final 100 μL reaction mixture in each well contained 0.3 μg of CDK4/Cyclin D1 (Cell Signaling Technology), 1 μg of Rb fragment (aa773-928, Millipore) for the CDK4 assay and 1 μCi of [^33P]-ATP. The mixture was incubated at room temperature for 1 hour. The proteins in the reaction were then precipitated and washed with cold TCA solution using an aspiration/filtration vacuum system. The plates were dried at room temperature, and the retained radioactivity was measured by scintillation counting. IC50 values of the compounds in the above assays were determined by non-linear regression analysis using Prism (GraphPad Software).
# CHO cells [2] = test: Cell cycle analysis: propidium iodide staining and FACS; format: cell-based, Chinese hamster; conditions: 5 microM
# Method: (§3) In one set of experiments, a cell cycle analysis was performed for various cell cycle inhibitory compounds. Briefly, CHO cells are grown in 24 deep well plate (for example, Corning Axygen deep well plates; Corning, Amsterdam, The Netherlands), using standard cell-culture medium, under conditions promoting growth of the cells (for example 36 degreesC, 5% CO2) in the presence of various cell cycle inhibitors. Samples are collected at various time points, and cell cycle profiles are obtained by propidium iodide (PI) staining followed by fluorescence-activated cell sorting (FACS) analysis. Results for compounds 6-acetyl-8-cyclopentyl-5-methyl-2-((5-(1-piperazinyl)-2-pyridinyl)amino)pyrido[2,3-d][…] (Compound A) and N-(6-(4-(dimethylamino)-1-piperidinyl)-3-pyridazinyl)-9-(trans-4-methylcyclohexyl)-9H-pyrido[4′,3′,:4,5]pyrrolo[2,3-d]pyrimidin-2-amine (Compound B) are shown in Table 1 below.
# Colo205 = test: [14C]-thymidine incorporation cell proliferation inhibition assay; format: cell-based; conditions: Homo sapiens, COLO 205, 72 hour incubation
# Method: The cell proliferation inhibition potency of the cell cycle inhibitors was determined by using a [^14C]-thymidine incorporation assay. Exponentially growing cells (Colo205) were seeded in a 96-well Cytostar T plate (GE Healthcare Biosciences) at a density of 5×10^3 cells/well and incubated overnight. Serially diluted compounds and 0.1 μCi of [^14C]-thymidine (GE Healthcare Biosciences) were added to each well on the following day. After 72 hour incubation, isotope incorporation was determined with a β plate counter (Wallac). IC50 values of the compounds in the above assays were determined by non-linear regression analysis using Prism (GraphPad Software).
# [3] = tested on: transfected CHO cells expressing recombinant human monoclonal antibody (cell line 1); test: 24-deep well culture, cell line 1: VCD, viability, titer, qP; format: cell-based, Chinese hamster; conditions: for Titer / VCD / Viability / qP: Cell Line 1, 5 microM
# Method: as §1, §2
# [4] = tested on: mammalian cells such as CHO cells; test: Predicted specific productivity of recombinant protein for Compound M; format: cell-based, Chinese hamster; conditions: predicted from Table 4, structural similarity, CDK4 assay and cell proliferation assay
# CHO cells [5] = test: Initial dosage and time course study: cell viability and growth arrest (Table 4); format: cell-based, Chinese hamster
# Method: as §3
# Various compounds were tested in an initial dosage and time course study to ascertain their effects on cell viability and growth phase arrest substantially as described previously in Example 1. Compounds were evaluated for effect, or lack thereof, on viability, as well as their ability to cause growth arrest. Compounds that maintained at least 80% cell viability at one or more concentrations for the five day duration of this assay were regarded as having relatively little or no cell cytotoxicity.
structure (smiles),measurement,setting,value
"CN(C)C1CCN(c2ccc(Nc3ncc4c5ccncc5n([C@H]5CC[C@H](C)CC5)c4n3)nn2)CC1 [Compound B, N-(6-(4-(dimethylamino)-1-piperidinyl)-3-pyridazinyl)-9-(trans-4-methylcyclohexyl)-9H-pyrido[4′,3′,:4,5]pyrrolo[2,3-d]pyrimidin-2-amine]",Titer,"[1]; 5 microM, D 1",0.29 g/L
same,VCD,"[1]; 5 microM, D 1",10.88 e6/mL
same,Viability,"[1]; 5 microM, D 1",95.11%
same,qP,"[1]; 5 microM, D 1",26.34 pg/c/d
same,Titer,"[1]; 5 microM, D 2",0.49 g/L
same,VCD,"[1]; 5 microM, D 2",11.15 e6/mL
same,Viability,"[1]; 5 microM, D 2",89.60%
same,qP,"[1]; 5 microM, D 2",43.95 pg/c/d
same,Titer,"[1]; 5 microM, D 3",0.62 g/L
same,VCD,"[1]; 5 microM, D 3",13.45 e6/mL
same,Viability,"[1]; 5 microM, D 3",87.50%
same,qP,"[1]; 5 microM, D 3",46.35 pg/c/d
same,Titer,"[1]; 5 microM, D 4",0.89 g/L
same,VCD,"[1]; 5 microM, D 4",20.16 e6/mL
same,Viability,"[1]; 5 microM, D 4",87.46%
same,qP,"[1]; 5 microM, D 4",43.97 pg/c/d
same,pIC50,CDK4/Cyclin D1,8.56
same,Cell Cycle Distribution (%) G1,CHO cells [2]; Day 1,91.22%
same,Cell Cycle Distribution (%) G2/M,CHO cells [2]; Day 1,2.74%
same,Cell Cycle Distribution (%) S,CHO cells [2]; Day 1,6.04%
same,Cell Cycle Distribution (%) G1,CHO cells [2]; Day 2,74.82%
same,Cell Cycle Distribution (%) G2/M,CHO cells [2]; Day 2,5.75%
same,Cell Cycle Distribution (%) S,CHO cells [2]; Day 2,19.43%
same,Cell Cycle Distribution (%) G1,CHO cells [2]; Day 3,79.21%
same,Cell Cycle Distribution (%) G2/M,CHO cells [2]; Day 3,3.49%
same,Cell Cycle Distribution (%) S,CHO cells [2]; Day 3,17.3%
same,Cell Cycle Distribution (%) G1,CHO cells [2]; Day 4,78.68%
same,Cell Cycle Distribution (%) G2/M,CHO cells [2]; Day 4,6.13%
same,Cell Cycle Distribution (%) S,CHO cells [2]; Day 4,15.19%
same,pIC50,Colo205,7.83
same,Titer,[3]; D 1,0.47 g/L
same,VCD,[3]; D 1,10.95 e6/mL
same,Viability,[3]; D 1,94.83%
same,qP,[3]; D 1,42.90 pg/c/d
same,Titer,[3]; D 2,0.70 g/L
same,VCD,[3]; D 2,9.61 e6/mL
same,Viability,[3]; D 2,85.63%
same,qP,[3]; D 2,72.84 pg/c/d
same,Titer,[3]; D 3,0.96 g/L
same,VCD,[3]; D 3,10.14 e6/mL
same,Viability,[3]; D 3,82.33%
same,qP,[3]; D 3,94.99 pg/c/d
same,Titer,[3]; D 4,1.19 g/L
same,VCD,[3]; D 4,12.66 e6/mL
same,Viability,[3]; D 4,78.87%
same,qP,[3]; D 4,94.23 pg/c/d
same,effect on viability,[3]; summary of Table 2,greater (but still modest) decreases in viability
same,growth arrest,[3]; summary of Table 2,more sustained growth arrest
"CN(C)C1CCN(c2ccc(Nc3ncc4c(n3)C3(C=CC(C)(C)CC3)c3cnccc3-4)nc2)CC1 (stereo not drawn) [Compound L, N-(5-(4-(dimethylamino)piperidin-1-yl)pyridin-2-yl)-4,4-dimethylspiro[cyclohex[2]ene-1,9′-pyrido[4′,3′:3,4]cyclopenta[1,2-d]pyrimidin]-2′-amine]",Titer,"[1]; 1.2 microM, D 1",0.28 g/L
same,VCD,"[1]; 1.2 microM, D 1",11.76 e6/mL
same,Viability,"[1]; 1.2 microM, D 1",94.88%
same,qP,"[1]; 1.2 microM, D 1",23.81 pg/c/d
same,Titer,"[1]; 1.2 microM, D 2",0.49 g/L
same,VCD,"[1]; 1.2 microM, D 2",13.63 e6/mL
same,Viability,"[1]; 1.2 microM, D 2",92.63%
same,qP,"[1]; 1.2 microM, D 2",35.94 pg/c/d
same,Titer,"[1]; 1.2 microM, D 3",0.58 g/L
same,VCD,"[1]; 1.2 microM, D 3",18.56 e6/mL
same,Viability,"[1]; 1.2 microM, D 3",92.09%
same,qP,"[1]; 1.2 microM, D 3",31.42 pg/c/d
same,Titer,"[1]; 1.2 microM, D 4",0.70 g/L
same,VCD,"[1]; 1.2 microM, D 4",26.40 e6/mL
same,Viability,"[1]; 1.2 microM, D 4",91.17%
same,qP,"[1]; 1.2 microM, D 4",26.64 pg/c/d
same,Titer,"[1]; 2.4 microM, D 1",0.28 g/L
same,VCD,"[1]; 2.4 microM, D 1",11.43 e6/mL
same,Viability,"[1]; 2.4 microM, D 1",94.24%
same,qP,"[1]; 2.4 microM, D 1",24.20 pg/c/d
same,Titer,"[1]; 2.4 microM, D 2",0.47 g/L
same,VCD,"[1]; 2.4 microM, D 2",12.95 e6/mL
same,Viability,"[1]; 2.4 microM, D 2",91.47%
same,qP,"[1]; 2.4 microM, D 2",36.29 pg/c/d
same,Titer,"[1]; 2.4 microM, D 3",0.60 g/L
same,VCD,"[1]; 2.4 microM, D 3",16.19 e6/mL
same,Viability,"[1]; 2.4 microM, D 3",90.68%
same,qP,"[1]; 2.4 microM, D 3",37.05 pg/c/d
same,Titer,"[1]; 2.4 microM, D 4",0.76 g/L
same,VCD,"[1]; 2.4 microM, D 4",24.27 e6/mL
same,Viability,"[1]; 2.4 microM, D 4",91.43%
same,qP,"[1]; 2.4 microM, D 4",31.18 pg/c/d
same,pIC50,CDK4/Cyclin D1,8.85
same,pIC50,Colo205,7.63
"CC(=O)c1c(C)c2cnc(Nc3ccc(N4CCNCC4)nn3)nc2n(C2CCCC2)c1=O [Compound M, 6-acetyl-8-cyclopentyl-5-methyl-2-((6-(piperazin-1-yl)pyridazin-3-yl)amino)pyrido[2,3-d]pyrimidin-7(8H)-one]",increase in specific productivity (qP) of recombinant protein,[4],> 200%
same,VCD,"CHO cells [5]; 2.5 microM, D 1",0.4656 e6/mL
same,VCD,"CHO cells [5]; 2.5 microM, D 2",0.6879 e6/mL
same,Viability,"CHO cells [5]; 2.5 microM, D 2",97.90%
same,VCD,"CHO cells [5]; 2.5 microM, D 3",1.1916 e6/mL
same,Viability,"CHO cells [5]; 2.5 microM, D 3",97.65%
same,VCD,"CHO cells [5]; 2.5 microM, D 4",2.1883 e6/mL
same,Viability,"CHO cells [5]; 2.5 microM, D 4",96.47%
same,VCD,"CHO cells [5]; 5 microM, D 1",0.4129 e6/mL
same,VCD,"CHO cells [5]; 5 microM, D 2",0.5439 e6/mL
same,Viability,"CHO cells [5]; 5 microM, D 2",97.90%
same,VCD,"CHO cells [5]; 5 microM, D 3",0.8760 e6/mL
same,Viability,"CHO cells [5]; 5 microM, D 3",97.67%
same,VCD,"CHO cells [5]; 5 microM, D 4",1.4543 e6/mL
same,Viability,"CHO cells [5]; 5 microM, D 4",95.90%
same,VCD,"CHO cells [5]; 10 microM, D 1",0.4204 e6/mL
same,VCD,"CHO cells [5]; 10 microM, D 2",0.4984 e6/mL
same,Viability,"CHO cells [5]; 10 microM, D 2",97.90%
same,VCD,"CHO cells [5]; 10 microM, D 3",0.7601 e6/mL
same,Viability,"CHO cells [5]; 10 microM, D 3",97.06%
same,VCD,"CHO cells [5]; 10 microM, D 4",1.2297 e6/mL
same,Viability,"CHO cells [5]; 10 microM, D 4",95.85%
same,VCD,"CHO cells [5]; 20 microM, D 1",0.3915 e6/mL
same,VCD,"CHO cells [5]; 20 microM, D 2",0.4101 e6/mL
same,Viability,"CHO cells [5]; 20 microM, D 2",97.90%
same,VCD,"CHO cells [5]; 20 microM, D 3",0.5348 e6/mL
same,Viability,"CHO cells [5]; 20 microM, D 3",97.31%
same,VCD,"CHO cells [5]; 20 microM, D 4",0.8023 e6/mL
same,Viability,"CHO cells [5]; 20 microM, D 4",96.04%
same,cytotoxicity and growth arrest properties,CHO cells [5]; compared with Compound A,"very similar, at similar concentrations, to the properties of Compound A"
same,pIC50,CDK4/Cyclin D1,7.82
same,pIC50,Colo205,7.04
